Test results from patent US12018001B2, “Pyrimidine cyclohexenyl glucocorticoid receptor modulators” (priority 2018, dated 2024).

Key:
[1] = molecular target: T1, GR (Homo sapiens, UniProt P04150); test: GR binding
T1 sequence (P04150 1-777): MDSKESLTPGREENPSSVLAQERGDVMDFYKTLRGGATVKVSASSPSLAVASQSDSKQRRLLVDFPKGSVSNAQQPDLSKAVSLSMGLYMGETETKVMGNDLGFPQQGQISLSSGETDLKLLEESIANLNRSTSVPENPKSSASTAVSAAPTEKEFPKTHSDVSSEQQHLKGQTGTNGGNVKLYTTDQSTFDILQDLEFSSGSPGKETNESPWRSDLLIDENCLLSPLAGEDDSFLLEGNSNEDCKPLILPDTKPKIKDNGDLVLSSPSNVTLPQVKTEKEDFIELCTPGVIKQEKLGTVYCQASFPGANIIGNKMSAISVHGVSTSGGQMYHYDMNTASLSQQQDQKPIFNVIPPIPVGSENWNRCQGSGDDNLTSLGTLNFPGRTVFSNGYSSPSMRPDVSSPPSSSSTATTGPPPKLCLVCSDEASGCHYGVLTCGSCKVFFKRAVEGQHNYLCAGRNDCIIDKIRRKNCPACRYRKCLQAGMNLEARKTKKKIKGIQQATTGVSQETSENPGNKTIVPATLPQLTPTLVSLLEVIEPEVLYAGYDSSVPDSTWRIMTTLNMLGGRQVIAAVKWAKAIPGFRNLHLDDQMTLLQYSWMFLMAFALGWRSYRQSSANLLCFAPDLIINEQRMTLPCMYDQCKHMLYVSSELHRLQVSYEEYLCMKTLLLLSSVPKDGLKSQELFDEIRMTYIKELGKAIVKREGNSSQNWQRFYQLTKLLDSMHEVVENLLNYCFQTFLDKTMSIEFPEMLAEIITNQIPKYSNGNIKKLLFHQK

[2] = molecular target: T2, glucocorticoid receptor (Homo sapiens, UniProt P04150); test: Hep G2 TAT assay: induction of TAT by dexamethasone in HepG2 cells; type: cell-based
T2 construct: host or cells: HepG2
T2 sequence (P04150 1-777): T1 sequence (P04150 1-777)
Experimental: Glucocorticoid mediated activation of TAT occurs by transactivation of glucocorticoid response elements in the TAT promoter by glucocorticoid receptor-agonist complex.
TAT activity was measured as outlined in the literature by A. Ali et al., J. Med. Chem., 2004, 47, 2441-2452.
HepG2 cells were cultured using MEME media supplemented with 10% (v/v) foetal bovine serum; 2 mM L-glutamine and 1% (v/v) NEAA at 37° C., 5%/95% (v/v) CO2/air. The HepG2 cells were counted and adjusted to yield a density of 0.125×10^6 cells/ml in RPMI 1640 without phenol red, 10% (v/v) charcoal stripped FBS, 2 mM L-glutamine and seeded at 25,000 cells/well in 200 μl into 96 well, sterile, tissue culture micro titre plates, and incubated at 37° C., 5% CO2 for 24 hours
Growth media was removed and replaced with assay media {RPMI 1640 without phenol red, 2 mM L-glutamine+10 μM forskolin}. […] Compounds were serially half log diluted in 100% (v/v) dimethylsulphoxide from a 10 mM stock.
HepG2 cells were then lysed with 30 μl of cell lysis buffer containing a protease inhibitor cocktail for 15 minutes at 4° C. 155 μl of substrate mixture was then added containing 5.4 mM Tyrosine sodium salt, 10.8 mM alpha ketoglutarate and 0.06 mM pyridoxal 5′ phosphate in 0.1 M potassium phosphate buffer (pH 7.4). After 2 hours incubation at 37° C. the reaction was terminated by the addition of 15 μl of 10 M aqueous potassium hydroxide solution, and the plates incubated for a further 30 minutes at 37° C. The TAT activity product was measured by absorbance at λ 340 nm.
[compound] and fitting the data to a 4 parameter logistic equation.

Row | SMILES | IC50 [1] [nM] | Ki [2] [nM]
1 | Cn1ncc2ccc(C3=CCC(c4[nH]c(=O)[nH]c(=O)c4Cc4ccccc4)CC3)cc21 (centres unmarked) [Example 57] | 266 | 
2 | CC(C)Oc1cc(C(F)(F)F)ccc1C1=CCC(c2[nH]c(=O)[nH]c(=O)c2Cc2ccccc2)CC1 (centres unmarked) [Example 59] | 134 | 
3 | O=c1[nH]c(C2CC=C(c3ccc(OC(F)(F)F)cc3Cl)CC2)c(Cc2ccccc2)c(=O)[nH]1 (centres unmarked) [Example 60] |  | 41
4 | Cn1ncc2c(C3=CCC(c4[nH]c(=O)[nH]c(=O)c4Cc4ccccc4)CC3)cccc21 (centres unmarked) [Example 61] |  | 485
5 | CC(C)Cn1nccc1C1=CCC(c2[nH]c(=O)[nH]c(=O)c2Cc2ccccc2)CC1 (centres unmarked) [Example 62] |  | 884
6 | Cc1cc(C2=CCC(c3[nH]c(=O)[nH]c(=O)c3Cc3ccccc3)CC2)n(C)n1 (centres unmarked) [Example 63] |  | 632
7 | O=c1[nH]c(C2CC=C(c3ccc4ncsc4c3)CC2)c(Cc2ccccc2)c(=O)[nH]1 (centres unmarked) [Example 64] | 142 | 
8 | O=c1[nH]c(C2CC=C(c3ccc4c(c3)OCCO4)CC2)c(Cc2ccccc2)c(=O)[nH]1 (centres unmarked) [Example 65] | 103 | 
9 | Cn1cnc2ccc(C3=CCC(c4[nH]c(=O)[nH]c(=O)c4Cc4ccccc4)CC3)cc21 (centres unmarked) [Example 66] | 3520 | 
10 | O=c1[nH]c(C2CC=C(c3ccc(OC(F)(F)F)cc3F)CC2)c(Cc2ccccc2)c(=O)[nH]1 (centres unmarked) [Example 67] |  | 120
11 | CC(C)Oc1ccc(C2=CCC(c3[nH]c(=O)[nH]c(=O)c3Cc3ccccc3)CC2)c(F)c1 (centres unmarked) [Example 68] |  | 497
12 | O=c1[nH]c(C2CC=C(c3ccc(C(F)(F)F)c(Cl)c3)CC2)c(Cc2ccccc2)c(=O)[nH]1 (centres unmarked) [Example 69] | 3420 | 
13 | CN(C)c1ccc(C2=CCC(c3[nH]c(=O)[nH]c(=O)c3Cc3ccccc3)CC2)cn1 (centres unmarked) [Example 70] | 142 | 
14 | CCn1nc(C(F)(F)F)cc1C1=CCC(c2[nH]c(=O)[nH]c(=O)c2Cc2ccccc2)CC1 (centres unmarked) [Example 71] |  | 148
15 | O=c1[nH]c(C2CC=C(c3cnc(C(F)(F)F)nc3)CC2)c(Cc2ccccc2)c(=O)[nH]1 (centres unmarked) [Example 72] | 1920 | 
16 | CS(=O)(=O)c1ccc(C2=CCC(c3[nH]c(=O)[nH]c(=O)c3Cc3ccccc3)CC2)c(F)c1 (centres unmarked) [Example 73] |  | 70
17 | CS(=O)(=O)c1ccc(C2=CCC(c3[nH]c(=O)[nH]c(=O)c3Cc3ccccc3)CC2)c(C(F)(F)F)c1 (centres unmarked) [Example 74] |  | 264
18 | CC(C)n1cc(C2=CCC(c3[nH]c(=O)[nH]c(=O)c3Cc3ccccc3)CC2)c(C(F)(F)F)n1 (centres unmarked) [Example 75] |  | 223
19 | Cn1cc(C2=CCC(c3[nH]c(=O)[nH]c(=O)c3Cc3ccccc3)CC2)c(C(F)(F)F)n1 (centres unmarked) [Example 77] |  | 170
20 | CCOc1ccc(C2=CCC(c3[nH]c(=O)[nH]c(=O)c3Cc3ccccc3)CC2)c(F)c1 (centres unmarked) [Example 78] |  | 175
21 | CCOc1ccc(C2=CCC(c3[nH]c(=O)[nH]c(=O)c3Cc3ccccc3)CC2)c(F)c1Cl (centres unmarked) [Example 79] |  | 530
22 | Cc1nn(C)c(C)c1C1=CCC(c2[nH]c(=O)[nH]c(=O)c2Cc2ccccc2)CC1 (centres unmarked) [Example 80] | 295 | 
23 | O=c1[nH]c(C2CC=C(c3ccc(Cl)cc3F)CC2)c(Cc2ccccc2)c(=O)[nH]1 (centres unmarked) [Example 81] |  | 400
24 | CCOc1ccc(C2=CCC(c3[nH]c(=O)[nH]c(=O)c3Cc3ccccc3)CC2)c(Cl)c1 (centres unmarked) [Example 82] | 4.4 | 
25 | O=c1[nH]c(C2CC=C(c3ccc(Cl)c(F)c3F)CC2)c(Cc2ccccc2)c(=O)[nH]1 (centres unmarked) [Example 83] | 38.3 | 

Row | SMILES | IC50 [1] [nM] | Ki [2] [nM]
26 | CNS(=O)(=O)c1ccc(C2=CCC(c3[nH]c(=O)[nH]c(=O)c3Cc3ccccc3)CC2)c(C(F)(F)F)c1 (centres unmarked) [Example 84] |  | 259
27 | O=c1[nH]c(C2CC=C(c3ccc(OCC4CC4)cc3Cl)CC2)c(Cc2ccccc2)c(=O)[nH]1 (centres unmarked) [Example 85, 5-benzyl-6-(2′-chloro-4′-(cyclopropylmethoxy)-2,3,4,5-tetrahydro-[1,1′-biphenyl]-4-yl)pyrimidine-2,4(1H,3H)-dione] |  | 1400
28 | O=c1[nH]c(C2CC=C(c3ccc(OCCO)cc3Cl)CC2)c(Cc2ccccc2)c(=O)[nH]1 (centres unmarked) [Example 86] |  | 1160
29 | O=c1[nH]c(C2CC=C(c3ccc(OCC(F)(F)F)cc3Cl)CC2)c(Cc2ccccc2)c(=O)[nH]1 (centres unmarked) [Example 87] |  | 453
30 | O=c1[nH]c(C2CC=C(c3cccc4nncn34)CC2)c(Cc2ccccc2)c(=O)[nH]1 (centres unmarked) [Example 88] | 483 | 
31 | Cn1ncc2cccc(C3=CCC(c4[nH]c(=O)[nH]c(=O)c4Cc4ccccc4)CC3)c21 (centres unmarked) [Example 89] |  | 433
32 | CCOc1ccc(C2=CCC(c3[nH]c(=O)[nH]c(=O)c3Cc3ccccc3)CC2)c(Cl)c1F (centres unmarked) [Example 90] |  | 746
33 | CCOc1ccc(C2=CCC(c3[nH]c(=O)[nH]c(=O)c3Cc3ccccc3)CC2)c(F)c1F (centres unmarked) [Example 91] |  | 247
34 | O=c1[nH]c(C2CC=C(c3ccc(OC(F)(F)F)c(F)c3F)CC2)c(Cc2ccccc2)c(=O)[nH]1 (centres unmarked) [Example 92] |  | 803
35 | O=c1[nH]c(C2CC=C(c3ccc(OC4CC4)cc3Cl)CC2)c(Cc2ccccc2)c(=O)[nH]1 (centres unmarked) [Example 93] | 10 | 
36 | O=c1[nH]c(C2CC=C(c3ccc(OC4CC4)cc3F)CC2)c(Cc2ccccc2)c(=O)[nH]1 (centres unmarked) [Example 94] |  | 200
37 | O=c1[nH]c(C2CC=C(c3ccc(OCC4CC4)cc3C(F)(F)F)CC2)c(Cc2ccccc2)c(=O)[nH]1 (centres unmarked) [Example 95] | 23 | 
38 | CNS(=O)(=O)c1ccc(C2=CCC(c3[nH]c(=O)[nH]c(=O)c3Cc3ccccc3)CC2)c(F)c1 (centres unmarked) [Example 98] |  | 110
39 | CN(C)S(=O)(=O)c1ccc(C2=CCC(c3[nH]c(=O)[nH]c(=O)c3Cc3ccccc3)CC2)c(F)c1 (centres unmarked) [Example 99] |  | 730
40 | O=c1[nH]c(C2CC=C(c3ccc(S(=O)(=O)N4CCCC4)cc3F)CC2)c(Cc2ccccc2)c(=O)[nH]1 (centres unmarked) [Example 100] |  | 1600
41 | CCS(=O)(=O)c1ccc(C2=CCC(c3[nH]c(=O)[nH]c(=O)c3Cc3ccccc3)CC2)c(F)c1 (centres unmarked) [Example 101] |  | 65
42 | CC(C)S(=O)(=O)c1ccc(C2=CCC(c3[nH]c(=O)[nH]c(=O)c3Cc3ccccc3)CC2)c(F)c1 (centres unmarked) [Example 102] |  | 270
43 | CN(C)S(=O)(=O)c1ccc(C2=CCC(c3[nH]c(=O)[nH]c(=O)c3Cc3ccccc3)CC2)c(Cl)c1 (centres unmarked) [Example 103] |  | 258
44 | O=c1[nH]c(C2CC=C(c3ccc(C4CC4)cc3F)CC2)c(Cc2ccccc2)c(=O)[nH]1 (centres unmarked) [Example 111, 5-benzyl-6-(4′-cyclopropyl-2′-fluoro-2,3,4,5-tetrahydro-[1,1′-biphenyl]-4-yl)pyrimidine-2,4(1H,3H)-dione] |  | 113
45 | O=c1[nH]c(C2CC=C(c3ccc(C4CC4)cc3C(F)(F)F)CC2)c(Cc2ccccc2)c(=O)[nH]1 (centres unmarked) [Example 112, 5-benzyl-6-(4′-cyclopropyl-2′-(trifluoromethyl)-2,3,4,5-tetrahydro-[1,1′-biphenyl]-4-yl)pyrimidine-2,4(1H,3H)-dione] |  | 333
46 | O=c1[nH]c(C2CC=C(c3ccc(C(F)(F)F)nc3N3CCCC3)CC2)c(Cc2ccccc2)c(=O)[nH]1 (centres unmarked) [Example 113] |  | 75
47 | O=c1[nH]c(C2CC=C(c3ccc(Cl)cc3C(F)(F)F)CC2)c(Cc2cccc(C(F)(F)F)c2)c(=O)[nH]1 (centres unmarked) [Example 114, 6-(4′-chloro-2′-(trifluoromethyl)-2,3,4,5-tetrahydro-[1,1′-biphenyl]-4-yl)-5-(3-(trifluoromethyl)benzyl)pyrimidine-2,4(1H,3H)-dione] |  | 121
48 | CS(=O)(=O)c1ccc(C2=CCC(c3[nH]c(=O)[nH]c(=O)c3Cc3cccc(F)c3F)CC2)c(F)c1 (centres unmarked) [Example 115, 5-(2,3-difluorobenzyl)-6-(2′-fluoro-4′-(methylsulfonyl)-2,3,4,5-tetrahydro-[1,1′-biphenyl]-4-yl)pyrimidine-2,4(1H,3H)-dione] |  | 85
49 | CS(=O)(=O)c1ccc(C2=CCC(c3[nH]c(=O)[nH]c(=O)c3Cc3cccc(C(F)(F)F)c3)CC2)c(F)c1 (centres unmarked) [Example 116] |  | 170
50 | CS(=O)(=O)c1ccc(C2=CCC(c3[nH]c(=O)[nH]c(=O)c3Cc3cccc(N4CCCC4)n3)CC2)c(F)c1 (centres unmarked) [Example 117] |  | 559
